Experimental data taken from patent publication EP4818330A1, “PHARMACEUTICAL PREPARATION FOR DIAGNOSING AND TREATING ALZHEIMER'S DISEASE” (Shanghai East Hospital Tongji University, priority 2023, dated 2025).
Where “and” joins values, the source holds several entries; their conditions need not be identical. Identical values can stand only once.

Tests used:
primary neurons = experiment: CCK8 cell viability (toxicity) assay in primary neurons; type: cell-based, mouse; settings: 24 h, CCK8, three replicate wells
Excerpt: (§1) The CCK8 cell viability assay (CCK8) was adopted. Its principle is mainly based on the reduction reaction of WST-8 (chemical name: 2-(2-methoxy-4-nitrophenyl)-3-(4-nitrophenyl)-5-(2,4-disulfophenyl)-2H-tetrazolium monosodium salt). In the presence of living cells, WST-8 can be reduced by dehydrogenases in mitochondria to generate a highly water-soluble orange-yellow formazan product. The color intensity is directly proportional to the number of living cells, wherein the quantity of living cells can be indirectly reflected by measuring the absorbance of formazan products (typically at a wavelength of 450 nm). The CCK-8 assay is widely used in cell proliferation assay, cytotoxicity assay and tumor drug sensitivity test.
(§2) Primary hippocampal neuron culture: After ICR fetal mice at 18-21 days of gestation (E18-E21) were anesthetized, the fetal mice were dissected in a clean area and immersed in 75% ethanol for 1-2 min. The mouse head was taken out, the surface skull was removed with micro-scissors, and the brain tissue was transferred to an anatomical dissociation solution. Under a microscope, blood vessels and meninges were removed, hippocampal tissue was isolated, the extracted hippocampal tissue was placed in a 3.5 cm dish containing the anatomical dissociation solution, and the hippocampal tissue was cut into small fragments using micro-scissors. The minced hippocampal tissue was transferred to a 7 ml EP tube using a pipette gun. The hippocampal tissue hereinabove was centrifuged at 1000 rpm for 3-5 min, and the anatomical separation solution was discarded. 0.5-1 ml of papain digestion solution was added to the EP tube hereinabove, and the EP tube was placed in a 37°C incubator for 30 min. 300 µL of Trituration buffer 300 (DNase) and 5 mL of complete medium were added, and the hippocampal tissue was gently pipetted more than 10 times. The cell suspension was allowed to stand for 3 min, and 3-4 ml of supernatant was gently aspirated into a 15 ml tube using a pipette. 3-4 ml of complete medium was added again, and the hippocampal tissue was gently pipetted more than 10 times. Step 8 was repeated, and 3-4 ml of supernatant was transferred to the same 15 ml tube again. The previous step was repeated again. The collected supernatant was centrifuged at 1000 rpm, the supernatant was discarded, and 5 ml of complete medium was added. The mixture was gently pipetted and suspended, and then centrifuged again at 1000 rpm for 5 min. The complete medium was added to resuspend the cells, and then a portion of the cells was aspirated for counting. Generally, when neuronal cells were planted in a 24-well plate, the concentration of the cell suspension was generally 2×10^5/ml, and 500 µl of cells is inoculated per well. The resuspended neuron cells with a diluted ratio were seeded onto a glass slide treated with PDL, then the glass slide was placed in a 37°C incubator for 10 min, an appropriate amount of complete medium was added, and then the culture is continued in the incubator.

[1] = as above; type: cell-based, mouse; settings: ICR, mouse, primary hippocampal neurons, 24 h, CCK8, three replicate wells
Excerpt: as §1, §2

CCOC(=O)c1[nH]c(C)c(CCC(=O)N2CCCC(C(=O)NCCN3CCCCCC3)C2)c1C (stereo not shown) [compound of Formula I, ETHYL4-[3-(3-{[2-(AZEPAN-1-YL)ETHYL]CARBAMOYL}PIPERIDIN-1-YL)-3-OXOPROPYL]-3, 5-DIMETHYL-1H-PYRROLE-2-CARBOXYLATE]
cell viability (primary neurons; 1.25 µmol): 88.68% and 77.1% | cell viability (primary neurons; 5 µmol): 77.35% and 75.31% | cell viability (primary neurons; 10 µmol): 58.82% and 65.03% | cell viability (primary neurons; 20 µmol): 40.38% and 35.57% | cell viability (primary neurons; 40 µmol): 23.14% and 48.19% and 36.68% | cell viability (primary neurons; 160 µmol): 3.329% and 5.244% | viability at 24 h, 1.25 µmol ([1]; 1.25 µmol): 94.5% | viability at 24 h, 5 µmol ([1]; 5 µmol): 70.7% | viability at 24 h, 10 µmol ([1]; 10 µmol): 51.8% | viability at 24 h, 20 µmol ([1]; 20 µmol): 37.1% | viability at 24 h, 80 µmol ([1]; 80 µmol): 4.02% | viability at 24 h, 160 µmol ([1]; 160 µmol): 4.65% | viability at 24 h, 2.5 µmol [1]: 90.6%
